This note sets out measurements from ChEMBL document CHEMBL1151479, “Hypoxia-inducible factor-1 inhibitory benzofurans and chalcone-derived diels-alder adducts from Morus species” (J Nat Prod, 2009).

The nature of series [1]: Cytotoxicity against human Hep3B cells after 24 hrs by MTT assay. In kind it is cell-based. Conditions: hep 3b2, 24 h. A general note: Tetrazolium dyes change colour on reduction, which living cells bring about.
In series [2] the target is Hypoxia inducible factors; HIF-1-alpha, HIF-2-alpha (Homo sapiens, UniProt Q16665+Q99814). Kind of series: Inhibition of hypoxia-induced HIF1 activation in human Hep3B cells by pGL3-HRE-luciferase reporter gene assay. In kind it is cell-based. As to conditions: hep 3b2. On the technique in general: A reporter such as luciferase makes a cellular process visible.
Series [3] concerns Hep 3B2. Description: Inhibition of hypoxia-induced VEGF protein secretion in human Hep3B cells after 16 hrs by ELISA. Type of series: functional, cell-based.
Series [4] has as its system Hep 3B2. Description: Effect on luciferase activity in human Hep3B cells exposed to hypoxic condition for 16 hrs. Type of series: functional, cell-based.
The subject of series [5] is Hep 3B2. Description: Inhibition of luciferase expression in human Hep3B cells after 16 hrs under hypoxic condition. In kind it is functional, cell-based.

For orientation: IC50 means the midpoint of a concentration-inhibition curve. Turning to `CC(C)=CCc1c(O)ccc(C(=O)[C@H]2[C@@H](c3c(O)ccc(C(=O)/C=C/c4ccc(O)cc4O)c3O)C=C(C)C[C@@H]2c2ccc(O)cc2O)c1O`, the Activity result in series [1] was “Dose-dependent effect”. The IC50 in series [2] turned out to be 8.55 µM; in the series on Hep 3B2 [3], 3.14 µM.
Consider `CC(C)=CCc1c(O)ccc(C(=O)[C@H]2[C@@H](c3c(O)ccc(C(=O)/C=C/c4ccc(O)cc4)c3O)C=C(C)C[C@@H]2c2ccc(O)cc2)c1O`, for which the values for the IC50 (in series [2]; with Hep 3B2 [3]) were 9.54 µM and 7.84 µM, respectively.
As to `CC(C)=CCC/C(C)=C/Cc1c(O)cc(O)cc1-c1cc2ccc(O)cc2o1` [ALBAFURAN A], the Activity result in series [1] was “Dose-dependent effect”. Further, the figures for the IC50 (in series [2]; in the series with Hep 3B2 [3]) were 6.27 µM and 2.62 µM, respectively.
As to `CO[C@H]1/C=C\C=C(/C)C(=O)NC2=CC(=O)C(NCCN(C)C)=C(C[C@@H](C)C[C@H](OC)[C@H](O)[C@@H](C)/C=C(\C)[C@@H]1OC(N)=O)C2=O` [ALVESPIMYCIN], the IC50 is over 30 µM in series [2] and 0.0795 µM in the series with Hep 3B2 [3].
In the case of `Oc1cc(O)cc(-c2cc3ccc(O)cc3o2)c1` [MORACIN M], the figures for the IC50 (in series [2]; in the series on Hep 3B2 [3]) were over 30 µM and over 50 µM, respectively.
Broadly, the EC50 is the concentration at which the effect is half-maximal. High values mean a need for much substance, low ones an effect from little substance. For `CC(C)(O)C1Cc2cc3cc(-c4cc(O)cc(O)c4)oc3cc2O1` (stereo not drawn) [MORACIN O], in the series with Hep 3B2 [4], the EC50 worked out at 0.001 µM. Besides, the figures for the IC50 (in the series with Hep 3B2 [5]; in series [2]; in the series with Hep 3B2 [3]) were 0.00179 µM, over 30 µM and 7.22 µM, respectively. Moreover, the Activity result in series [1] is “Dose-dependent effect”.
With `CC1(C)Oc2cc3oc(-c4cc(O)cc(O)c4)cc3cc2C[C@H]1O` [MORACIN P], in series [1], the Activity entry is recorded as “Dose-dependent effect”. In addition, the IC50 in series [2] is over 30 µM; with Hep 3B2 [3] it was 10.6 µM.
As to `COc1c(O)cc2oc(-c3cc(O)cc(O)c3)cc2c1CC(=O)C(C)C` [MORACIN Q], the Activity result in series [1] was “Dose-dependent effect”. The IC50 in series [2] is over 30 µM; in the series with Hep 3B2 [3], 9.28 µM.
Turning to `CC(C)=CCC/C(C)=C/Cc1c(O)ccc2cc(-c3cc(O)cc(O)c3CC=C(C)C)oc12` [MULBERROFURAN D], the Activity result in series [1] is “Dose-dependent effect”. In addition, the figures for the IC50 (in series [2]; in the series on Hep 3B2 [3]) were 8.76 µM and 2.17 µM, respectively.
On to `CC1=C[C@H]2c3c(O)cc(-c4cc5ccc(O)cc5o4)cc3O[C@@]3(c4ccc(O)cc4O)Oc4cc(O)ccc4[C@H](C1)[C@@H]23` [MULBERROFURAN G], for which the IC50 is over 30 µM in series [2] and 28.6 µM in the series on Hep 3B2 [3].
As to `C[C@@]12C=C(c3c(O)cc(-c4cc5ccc(O)cc5o4)cc3O)C[C@@H](C1)c1ccc(O)cc1O2` [MULBERROFURAN H], the Activity result in series [1] was “Dose-dependent effect”. Further, the values for the IC50 (in series [2]; in the series with Hep 3B2 [3]) were over 30 µM and 15.4 µM, respectively.
As to `CC(C)=CCC/C(C)=C\CC/C(C)=C\Cc1c(O)cc(O)cc1-c1cc2ccc(O)cc2o1` [MULBERROFURAN W], the IC50 in series [2] came to 6.07 µM; with Hep 3B2 [3], 3.05 µM.
Turning to `CC(C)=CC[C@]12Oc3cc(O)c([C@H]4C=C(C)C[C@H](c5ccc(O)cc5O)[C@H]4C(=O)c4ccc(O)cc4O)c(O)c3C(=O)[C@@]1(O)Oc1cc(O)ccc12` [SANGGENON C], the IC50 came to 8.26 µM in series [2] and 3.2 µM with Hep 3B2 [3].
`CC(C)=CC[C@@]12Oc3cc(O)c([C@H]4C=C(C)C[C@H](c5ccc(O)cc5O)[C@H]4C(=O)c4ccc(O)cc4O)c(O)c3C(=O)[C@]1(O)Oc1cc(O)ccc12` [SANGGENON O]: in series [1], the Activity result was “Dose-dependent effect”. In addition, the IC50 came out at 8.75 µM in series [2] and 2.08 µM in the series with Hep 3B2 [3].
